The source of these data is US12404261B2, “Compounds and compositions for treating conditions associated with cGAS” (Novartis AG, priority 2020, dated 2025).

For the test, the target named is human truncated cGAS enzyme (147-522 human cGAS) (Homo sapiens (Human), UniProt Q8N884). As to the kind of experiment: Quantification of cGAS protein inhibition (cGAMP formation measured by LC-MS/MS). In kind it is biochemical. Here is the method: A reagent buffer was prepared in filtered and autoclaved water according to the following: • 50 mM Tris-buffer pH 7.5 (1 M Tris-buffer pH 7.5, Invitrogen, Cat. No. 15567-027); • 50 mM NaCl (5 M NaCl, Sodium Chloride Solution, Sigma, 59222C-); • 5 mM MgCl2 (1 M MgCl2, Sigma, M1028); • 0.1 mM ZnCl2 (Zinc Chloride [7646-85-7], powder, Cell Culture Tested, Sigma, Z-0152); and • 0.001% Tween 20 (TWEEN 20, Sigma Aldrich, P1379-).
Chain of human truncated cGAS enzyme (147-522 human cGAS) (Q8N884 147-522): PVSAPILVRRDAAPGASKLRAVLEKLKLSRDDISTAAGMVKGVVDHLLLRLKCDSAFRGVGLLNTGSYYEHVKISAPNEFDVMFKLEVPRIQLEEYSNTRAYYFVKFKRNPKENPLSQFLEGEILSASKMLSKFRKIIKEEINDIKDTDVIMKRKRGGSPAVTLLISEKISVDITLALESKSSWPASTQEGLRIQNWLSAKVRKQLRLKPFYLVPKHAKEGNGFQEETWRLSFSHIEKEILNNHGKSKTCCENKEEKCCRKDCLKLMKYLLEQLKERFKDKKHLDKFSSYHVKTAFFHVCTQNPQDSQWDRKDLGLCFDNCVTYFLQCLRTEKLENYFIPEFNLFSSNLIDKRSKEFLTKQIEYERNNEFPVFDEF
A buffer for the cGAS enzyme was prepared in filtered and autoclaved water according to the following: • 50 mM Tris-buffer pH 7.5; • 5 mM MgCl2; and • 0.001% Tween 20.
Compounds were dispensed to a […]. The human truncated cGAS enzyme (4.2 mg/mL 147-522 human cGAS, MW 43,909 g/mol) was stored in 50 mM Tris, 500 mM NaCl, 5% (v/v) glycerol at pH 8 and diluted in the cGAS buffer enzyme shortly before use. The enzyme solution was transferred into the reagent buffer to give a final concentration of 30 nM. The reaction was started by mixing the enzyme with ISD (a 45 bp double stranded DNA, MW 27,670 g/mol, 5 mM), GTP and ATP to a final concentration of 5 μM, 0.5 mM and 0.5 mM respectively in a final volume of 10 μl. The reaction plates were then centrifuged at 1000 rpm for 1 minute and incubated at room temperature for 1 h. After 1 h of incubation, [^5Ns]-2′3′-cGAMP to a final concentration of 200 nM and 30 μL of 100% acetonitrile/0.175% of TFA were added to the reaction mixture. The plates were centrifuged at 1000 rpm for 1 minute before being sealed for 3 seconds at 170° C. using a ThermoScientific sealer (ALPS™ 50V) and an aluminum sealing cover (Pierce Seal, 4titude, Product Code: 4TI-0531).
The concentration of cGAMP was measured on a LC-MS/MS system consisting of a THERMO Dionex Ultimate LC system with a high pressure pump, an autosampler, a column heating compartment (Reinach, Switzerland) and a SCIEX Triple Quad 5500 (Framingham, MA, USA) mass spectrometer for detection. The sample plates were centrifuged for 10 minutes at 2000 rpm. Up to three plates were placed in the autosampler for injection. An aliquot of 10 μL of each sample was injected on an XBridge BEH Amide 3.5 μm, 2.1×50 mm column (P/N 186004859) with an XBridge BEH Amide 5 μm 2.1×5 mm VanGuard Cartridge (P/N 186007760) pre-column (both WATERS, MA, USA) held at 40° C. An isocratic flow of 1.0 mL/min solvent (60% ACN, 8 mM ammonium acetate, 5 mM ammonium hydroxide, 0.04% acetic acid) was applied and sprayed into the ion source of the mass spectrometers. The MS parameters were optimized based on the properties of the compounds to be detected and run in positive multi-reaction mode (MRM) based on the mass transitions. LC and MS parameters were also optimized to allow for a sample-to-sample measuring time of approximately 75 sec and a run time of 8 hours per 384-well plate. All data were analyzed with Excel; and the dose response curves were generated using the auto fitting function of XLfit. The IC50 was determined by plotting the cGAMP concentration ratio (cGAMP divided by the internal standard [^15Ns]-2′3′-cGAMP) versus the concentration of compound.

Where [1] appears, read: reported for the potential mixture of co-existing tautomers and/or racemates.
[2] abbreviates: reported for the potential mixture in solution of co-existing tautomers and/or racemates.

In the case of `COc1cc2c(-c3cn[nH]c3)c(-c3nnc(C(C)C#N)[nH]3)n(C)c2c(F)c1Cl` (stereo not drawn) [Example 82, 2-(5-(6-Chloro-7-fluoro-5-methoxy-1-methyl-3-(1H-pyrazol-4-yl)-1H-indol-2-yl)-4H-1,2,4-triazol-3-yl)propanenitrile], under setting [1], the half-maximal inhibitory concentration (IC50) was 30 nM. The same measure, in the same setting: the result for `COCC(F)(F)c1nnc(-c2[nH]c3c(Cl)c(Cl)ccc3c2-c2cn[nH]c2)[nH]1` [Example 9, 6,7-dichloro-2-(5-(1,1-difluoro-2-methoxyethyl)-4H-1,2,4-triazol-3-yl)-3-(1H-pyrazol-4-yl)-1H-indole] reads 30 nM; that for `OCc1nnc(-c2[nH]c3c(Cl)c(Cl)ccc3c2-c2cn[nH]c2)[nH]1` [Example 36, (5-(6,7-Dichloro-3-(1H-pyrazol-4-yl)-1H-indol-2-yl)-4H-1,2,4-triazol-3-yl)methanol], 342 nM. As for `COCCN(C)C(=O)c1nnc(-c2c(-n3ccnc3)c3cc(OC)c(Cl)c(F)c3n2C)[nH]1` [Example 40, 5-(6-chloro-7-fluoro-3-(1H-imidazol-1-yl)-5-methoxy-1-methyl-1H-indol-2-yl)-N-(2-methoxyethyl)-N-methyl-4H-1,2,4-triazole-3-carboxamide], the IC50 under setting [1] came to 82 nM. On the same count and under the same terms, the result for `COc1cc2c(-n3ccnc3)c(-c3nnc(C(F)(F)F)[nH]3)[nH]c2c(F)c1Cl` [Example 48, 6-chloro-7-fluoro-3-(1H-imidazol-1-yl)-5-methoxy-2-(5-(trifluoromethyl)-4H-1,2,4-triazol-3-yl)-1H-indole] reads 66 nM; that for `COc1cc2c(-n3ccnc3)c(-c3nnc(N(C)CCO)[nH]3)n(C)c2c(F)c1Cl` [Example 90, 2-((5-(6-chloro-7-fluoro-3-(1H-imidazol-1-yl)-5-methoxy-1-methyl-1H-indol-2-yl)-4H-1,2,4-triazol-3-yl)(methyl)amino)ethan-1-ol], 93 nM. Consider `NC(=O)c1nnc(-c2[nH]c3c(Cl)c(Cl)ccc3c2-c2cn[nH]c2)[nH]1` [Example 22, 5-(6,7-dichloro-3-(1H-pyrazol-4-yl)-1H-indol-2-yl)-4H-1,2,4-triazole-3-carboxamide], for which, under setting [1], the IC50 came out at 30 nM.

For `COc1cc2c(-c3cn[nH]c3)c(-c3nnc(C(F)(F)CO)[nH]3)n(C)c2c(F)c1Cl` [Example 69, 2-(5-(6-chloro-7-fluoro-5-methoxy-1-methyl-3-(1H-pyrazol-4-yl)-1H-indol-2-yl)-4H-1,2,4-triazol-3-yl)-2,2-difluoroethan-1-ol], the IC50 under setting [1] was determined as 38 nM. The same measure, in the same setting: the result for `COc1cc2c(-c3cn[nH]c3)c(-c3nnc(C(F)(F)F)[nH]3)n(C)c2cc1Cl` [Example 20, 6-chloro-5-methoxy-1-methyl-3-(1H-pyrazol-4-yl)-2-(5-(trifluoromethyl)-4H-1,2,4-triazol-3-yl)-1H-indole] reads 116 nM. On the same count and under the same terms, under `COc1c(Cl)ccc2c(-c3cn[nH]c3)c(-c3nnc(C(F)(F)F)[nH]3)[nH]c12` [Example 17, 6-chloro-7-methoxy-3-(1H-pyrazol-4-yl)-2-(5-(trifluoromethyl)-4H-1,2,4-triazol-3-yl)-1H-indole] stands 1490 nM; under `COCC(F)(F)c1nnc(-c2c(-c3cn[nH]c3)c3cc(OC)c(Cl)c(C#N)c3n2C)[nH]1` [Example 73, 6-chloro-2-(5-(1,1-difluoro-2-methoxyethyl)-4H-1,2,4-triazol-3-yl)-5-methoxy-1-methyl-3-(1H-pyrazol-4-yl)-1H-indole-7-carbonitrile], 30 nM; under `COc1cc2c(-c3cn[nH]c3)c(-c3nnc(C(C)N(C)C)[nH]3)n(C)c2c(F)c1Cl` (stereo not drawn) [Example 80, 1-(5-(6-chloro-7-fluoro-5-methoxy-1-methyl-3-(1H-pyrazol-4-yl)-1H-indol-2-yl)-4H-1,2,4-triazol-3-yl)-N,N-dimethylethan-1-amine], 39 nM. As for `COCC(c1nnc(-c2c(-n3ccnc3)c3cc(OC)c(Cl)c(F)c3n2C)[nH]1)N(C)C` (racemic) [Example 124, 1-(5-(6-chloro-7-fluoro-3-(1H-imidazol-1-yl)-5-methoxy-1-methyl-1H-indol-2-yl)-4H-1,2,4-triazol-3-yl)-2-methoxy-N,N-dimethylethan-1-amine], the half-inhibitory concentration (IC50) under setting [2] worked out at 122 nM. Regarding `COCC(c1nnc(-c2c(-n3ccnc3)c3cc(OC)c(Cl)c(F)c3n2C)[nH]1)N1CCC1` (stereo not drawn) [Example 127, 2-(5-(1-(azetidin-1-yl)-2-methoxyethyl)-4H-1,2,4-triazol-3-yl)-6-chloro-7-fluoro-3-(1H-imidazol-1-yl)-5-methoxy-1-methyl-1H-indole], the IC50 under setting [2] amounted to 487 nM. Same read-out and setting: under `FC(F)(F)c1nnc(-c2[nH]c3c(Cl)c(Cl)ccc3c2-n2ccnc2)[nH]1` [Example 106, 6,7-dichloro-3-(1H-imidazol-1-yl)-2-(5-(trifluoromethyl)-4H-1,2,4-triazol-3-yl)-1H-indole] stands 95 nM. For `COCC(=O)c1nnc(-c2[nH]c3c(F)c(Cl)c(OC)cc3c2-c2cn[nH]c2)[nH]1` [Example 57, 1-(5-(6-chloro-7-fluoro-5-methoxy-3-(1H-pyrazol-4-yl)-1H-indol-2-yl)-4H-1,2,4-triazol-3-yl)-2-methoxyethan-1-one], under setting [1], the 50% inhibitory concentration (IC50) worked out at 30 nM.

As for `COCCN(C)C(C)c1nnc(-c2c(-n3ccnc3)c3cc(OC)c(Cl)c(F)c3n2C)[nH]1` (stereo not drawn) [Example 128, 1-(5-(6-chloro-7-fluoro-3-(1H-imidazol-1-yl)-5-methoxy-1-methyl-1H-indol-2-yl)-4H-1,2,4-triazol-3-yl)-N-(2-methoxyethyl)-N-methylethan-1-amine], the concentration for half-maximal inhibition (IC50) under setting [2] was 454 nM. Still for that read-out and setting: under `COC[C@@H](c1nnc(-c2c(-n3ccnc3)c3cc(OC)c(Cl)c(F)c3n2C)[nH]1)N(C)C` [Example 124a, (R)-1-(5-(6-chloro-7-fluoro-3-(1H-imidazol-1-yl)-5-methoxy-1-methyl-1H-indol-2-yl)-4H-1,2,4-triazol-3-yl)-2-methoxy-N,N-dimethylethan-1-amine] stands 120 nM; under `COc1cc2c(-n3ccnc3)c(-c3nnc(C(=O)N(C)C)[nH]3)n(C)c2cc1Cl` [Example 116, 5-(6-chloro-3-(1H-imidazol-1-yl)-5-methoxy-1-methyl-1H-indol-2-yl)-N,N-dimethyl-4H-1,2,4-triazole-3-carboxamide], 103 nM.

On to `COCC(F)(F)c1nnc(-c2[nH]c3c(F)c(Cl)c(OC)cc3c2-c2cn[nH]c2)[nH]1` [Example 65, 6-chloro-2-(5-(1,1-difluoro-2-methoxyethyl)-4H-1,2,4-triazol-3-yl)-7-fluoro-5-methoxy-3-(1H-pyrazol-4-yl)-1H-indole], for which, under setting [1], the concentration for half-maximal inhibition (IC50) is 31 nM. As for `COc1cc2c(-n3ccnc3)c(-c3nnc(N4CC[C@@H](O)C4)[nH]3)n(C)c2c(F)c1Cl` [Example 91, (R)-1-(5-(6-chloro-7-fluoro-3-(1H-imidazol-1-yl)-5-methoxy-1-methyl-1H-indol-2-yl)-4H-1,2,4-triazol-3-yl)pyrrolidin-3-ol], the concentration for half-maximal inhibition (IC50) under setting [1] was 109 nM. The same measure, in the same setting: the result for `CCOc1cc2c(-c3cn[nH]c3)c(-c3nnc(C(C)=O)[nH]3)n(C)c2c(F)c1Cl` [Example 74, 1-(5-(6-chloro-5-ethoxy-7-fluoro-1-methyl-3-(1H-pyrazol-4-yl)-1H-indo1-2-yl)-4H-1,2,4-triazol-3-yl)ethan-1-one] reads 210 nM; that for `FC(F)(F)c1nnc(-c2cc3c(Cl)c(Cl)ccc3n2-c2cn[nH]c2)[nH]1` [Example 32, 4,5-dichloro-1-(1H-pyrazol-4-yl)-2-(5-(trifluoromethyl)-4H-1,2,4-triazol-3-yl)-1H-indole], 496 nM. In the case of `OCCc1nnc(-c2[nH]c3c(Cl)c(Cl)ccc3c2-c2cn[nH]c2)[nH]1` [Example 15, 2-(5-(6,7-dichloro-3-(1H-pyrazol-4-yl)-1H-indol-2-yl)-4H-1,2,4-triazol-3-yl)ethan-1-ol], the concentration for half-maximal inhibition (IC50) under setting [1] came out at 188 nM.

Broadly, the IC50 is the point on the concentration scale where inhibition reaches its midpoint.
